PMC8804135 (Neurotherapeutics, 2021)
Numbered stars: 1 amine (or outer) side, 2 acyl side, 3 side chain; on linkers, the order of the positions; unused ones are H or OH. Bridge positions count the residues as written; N and C are the ends. Square brackets hold non-standard residues; d marks the D form. Peptide text beside a SMILES is read from it. dAbu(3S-yl) = C[C@@H]([C@@H](N[*:1])C(=O)[*:2])[*:3]; pGlu = O=C1CC[C@@H](C(=O)O)N1

Key:
[1] = mouse, in vivo, 1 mg/kg
Experimental: Pharmacokinetics studies were performed at Pharmidex UK. The animal experimental protocols were approved by the UK Government Home Office and carried out in accordance with the guidelines of the Animals (Scientific Procedures) Act (1986). Ethical approval was subject to UK Home Office license number P651A96A4.
One mg HPLC-purified and HPLC-quantified M89b was dissolved in 1 ml Milli-Q followed by thorough vortexing and warming the solution for 10 min to 60 °C. From this solution, a dilution in 0.1% 2-hydroxypropyl-β-cyclodextrin was made. Male CD1 mice (weighing 26.5 to 32.9 g, n = 3 per time point) were used for the pharmacokinetic studies. Mice were given 1 mg/kg M89b either subcutaneously (s.c.) or intravenously (i.v.). Samples were collected after 2, 5, 10, 15, 30, 60, 120, and 240 min. Post-dosing, the 4 h mice were individually housed in metabolic cages for cold collection of urine in pre-weighed tubes which were re-weighed prior to storage. At each scheduled sampling time point, terminal blood was collected from each animal by cardiac puncture in heparin-containing tubes (20 IU heparin/mL of blood) kept on wet ice. The blood was centrifuged (5 min at 21, 100 g at 4 °C), and the resulting plasma was transferred to the corresponding labeled polypropylene tubes prior to storage. […]

GAL1R = target: T1, GAL1R (Homo sapiens, UniProt P47211); assay: cAMP Hunter eXpress GAL1R CHO-K1 GPCR assay (inhibition of forskolin-induced cAMP); assay type: cell-based; set-up: expressed in transfected cells; details: Table 3; CHO-K1 cells expressing GAL1R; 20 µM forskolin; 10 µM to 5 nM; (average) ratio, (n) in cell = number of assays; NA = ratio above 1000
T1 sequence (P47211 1-349): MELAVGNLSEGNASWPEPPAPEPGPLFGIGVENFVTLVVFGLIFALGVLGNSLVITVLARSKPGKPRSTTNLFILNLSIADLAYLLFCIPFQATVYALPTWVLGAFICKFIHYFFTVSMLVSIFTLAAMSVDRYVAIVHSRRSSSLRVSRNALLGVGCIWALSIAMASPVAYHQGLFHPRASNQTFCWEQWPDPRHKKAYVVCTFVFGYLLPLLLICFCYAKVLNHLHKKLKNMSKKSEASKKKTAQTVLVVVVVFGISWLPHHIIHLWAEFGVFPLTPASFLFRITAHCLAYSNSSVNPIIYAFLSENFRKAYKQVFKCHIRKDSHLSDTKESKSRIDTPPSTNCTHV
Experimental: To evaluate the ability of lanthipeptides to […] via GAL1R signaling, we used the cAMP Hunter™ eXpress GAL1R CHO-K1 GPCR Assay from Eurofins-DiscoverX. The assay was performed according to the manufacturer’s instructions. Briefly, for one assay, CHO-K1 cells expressing GAL1R were diluted in AssayComplete™ Cell Plating 2 Reagent, and 100 µl was seeded into each well of a 96-well plate. The plate was incubated at 37 °C, 5% CO2 in a humidified incubator. After 24 h of incubation, the media was aspirated, and 45 µl cell assay buffer/antibody mixture was added to all wells. […] Fifteen µl of the serial dilutions was applied in duplicates to the cells. The concentration of forskolin in the assay was 20 µM. The agonists were incubated for 30 min at 37 °C. Next, 15 µL Antibody Solution and 60 μL cAMP Working Detection Solution were added, and the plate was incubated for 1 h in the dark at room temperature. Finally, 60 μL cAMP Solution A was added and, after 3 h of incubation in the dark at room temperature, the chemiluminescent signal was read with a Synergy HT Biotek reader.

[2] = test system: non-fasted male Wistar rats; assay: Food intake and body weight after intranasal application of peptides; assay type: in vivo, rat
Experimental: For intranasal delivery, 1 mg of M89b was first dissolved in 566 µl 2,2,2-trifluorethanol, 566 µl 10% (2-hydroxypropyl)-ß-cyclodextrin (HBC), and 1 µl acetic acid and incubated at 60 °C for 20 min. Another 566 µl of 10% HBC were added. The peptide was then dried in a speed-vac, and the dried pellet was dissolved in 1132 µl water by vortexing and incubation at 60 °C. M871 and GALP were purchased from GL Biochem. M871 was dissolved in saline containing 10% HBC. GALP was dissolved in saline containing 5% α-cyclodextrin.
In vivo experiments involving intranasal treatment of rats and measurement of feeding behavior were performed at the Institute for Translational Medicine, University of Pécs, Pécs, Hungary. Experiments were approved by the National Ethical Council for Animal Research (permit number, BA 02/2000–11/2018). They were also in accord with the directives of the European Communities Council on the protection of animals used for scientific purposes (86/609/EEC, Directive 2010/63/EU of the European Parliament and of the Council).
Spontaneous food intake was measured in non-fasted male Wistar rats (3 months old) for 24 h following intranasal application of peptide solutions by an automated FeedScale System (Columbus, OH). Each group of animals (6–9 rats/group) was habituated to the individual chambers of the FeedScale System until daily food intake and changes in the body weight of the animals had normalized. This habituation, which lasted for a minimum of 2 weeks, allowed adaptation to the environment, to the powdered chow and to the feeder. This powdered form of chow prevented food hoarding. A special digital scale under the cages provided precise automated measurement and continuous recording of the amount of consumed food. During the measurement of the cumulative 24 h food intake, data were collected every 30 min.
Intranasal applications were performed at 06:00 PM at the onset of the active nighttime period of rats. First, the body weight of animals was recorded, and then they were intraperitoneally anesthetized with ketamine (52 mg/kg) and xylazine (9 mg/kg). For the intranasal application of peptides, rats were placed on their backs, and 25–30 µl of peptide solution was injected gently per nostril (total volume of 50–60 μl per rat depending on the administered peptides) using a 10-μl pipette. The following solutions were applied: M89b (25 nmol in 60 µl saline containing 10% HBC); GALP (17.5 nmol in 50 µl saline containing 5% α-cyclodextrin); M871 (219 nmol in 60 µl 10% HBC); and M89b + M871 (25 nmol M89b + 219 nmol M871 in 60 µl 10% HBC). […] At 24 h post-treatment, the body weight of the animals was measured.
Statistical analysis was performed with SPSS 11.0. […] Body weight data were analyzed by applying a one-way ANOVA with Tukey’s post hoc test. […]

Detection in urine samples [1]: not detected
Detection in brain tissue ([1]; sc): not detected
Compound: CC(C)C[C@H](NC(=O)[C@H](CC(C)C)NC(=O)[C@H](Cc1ccc(O)cc1)NC(=O)CNC(=O)[C@H](C)NC(=O)[C@H](C)NC(=O)[C@H](CC(N)=O)NC(=O)[C@H](CC(C)C)NC(=O)[C@H](CC(N)=O)NC(=O)[C@H](Cc1c[nH]c2ccccc12)NC(=O)[C@@H]1CCC(=O)N1)C(=O)N[C@@H](C)C(=O)N[C@H]1C(=O)N[C@@H](Cc2c[nH]cn2)C(=O)N[C@@H](C)C(=O)N[C@H](C(=O)NCC(=O)O)CS[C@H]1C [Variant M89b, G1pE-T3N-S6A-G12A-methyllanthionine[13–16]-galanin-(1–17)] ([pGlu]WNLNAAGYLLA[dAbu(3S-yl)]HACG-OH; thioether 13-16; C-terminus assumed)
EC50 ratios to Gal-(1-15), GAL1R cAMP (GAL1R): NA (3) (NA is not active; ratios above 1000 were considered to be not active)
Loss of initial body weight at 24 h post-treatment ([2]; intranasal 25 nmol in 10% HBC, p = 0.009 vs. vehicle): 2.6%
Reduction of 24 h food intake compared to vehicle ([2]; intranasal 25 nmol in 60 µl saline with 10% HBC, p = 0.006 vs vehicle): 23%
